Results taken from patent publication US20140200825A1, “Method for predicting whether a cancer patient will not benefit from platinum-based chemotherapy agents” (Biodesix, Inc., priority 2012, published 2014).

Columns and labels:
Format in all cases: in vivo, human
[1] = tested on: advanced non-small cell lung cancer (NSCLC); test: LCCC0512 study, gemcitabine arm, outcome by VeriStrat group; conditions: for median PFS: NSCLC patients treated with gemcitabine alone
Protocol: The LCCC0512 study was a randomized phase II trial of first-line treatment with gemcitabine, erlotinib or the combination in elderly (over 70 years old) patients with advanced non-small cell lung cancer (NSCLC). Patients had stage IIIB or IV NSCLC and ECOG performance status of 0-2. Patients were randomized to receive either a maximum of 4 cycles of gemcitabine (1200 mg/m^2 days 1,8 every 21 days), 150 mg erlotinib daily, or a maximum of 4 cycles of gemcitabine (1000 mg/m^2 days 1,8 every 21 days) with concurrent 100 mg erlotinib daily. Primary endpoint was progression-free survival at 6 months. Patients randomized to receive gemcitabine monotherapy were encouraged to continue on study to receive erlotinib after progression. A total of 146 patients were enrolled. No significant differences in PFS or OS were found between treatment arms.
Pretreatment serum or plasma samples from patients in the LCCC0512 trial were available for VeriStrat testing. 124 samples were received. Sixty four samples were classified as VeriStrat Good, 39 as VeriStrat Poor and 7 as Indeterminate (undefined/equivocal classification). Of the remaining samples 13 could not be processed due to hemolysis and data could not be collected from one sample. For 5 samples where VeriStrat testing was performed, the samples could not be matched to clinical data from the trial. This left 98 samples with VeriStrat classification of Good or Poor and clinical data for statistical analysis. The majority of the samples tested were plasma, but where plasma was not available for a few patients, serum samples were used. Of the samples on which VeriStrat testing yielded a result of Good or Poor only 5 were identified as serum.
Survival analysis was carried out using SAS Enterprise Guide (SAS 9.2). Difference between groups was assessed using log-rank p values. Both univariate and multivariate hazard ratios were evaluated using Cox proportional hazard models. Kaplan-Meier plots and p values for contingency tables were generated using PRISM (GraphPad). For purposes of this disclosure, the data of interest pertain to the “gemcitabine” arm.

NSCLC = test: Subgroup of NSCLC patients treated with docetaxel, overall survival by VeriStrat group; conditions: between VeriStrat Good and VeriStrat Poor patients, FIG. 6
From the text: FIG. 6 is a Kaplan-Meier plot of overall survival for a subgroup analysis of one of the cohorts studied in Taguchi et al., Mass spectrometry to classify non-small-cell lung cancer patients for clinical outcome after treatment with epidermal growth factor receptor tyrosine kinase inhibitors: a multicohort cross-institutional study.
Given our previous experience with VeriStrat separation in NSCLC and other cancers, we believe that the difference shown in FIGS. 1-4 and 7A-7B lies principally in the Poor group—i.e., that they probably benefit very little from the combination of gemcitabine+cisplatin (or possibly other combinations of chemotherapy based on a platinum agent), but can get outcomes similar to Good patients if they receive gemcitabine alone, or another non-platinum agent, for example, docetaxel. Our results in a subgroup of NSCLC patients treated with docetaxel show no difference in overall survival between VeriStrat Good and VeriStrat Poor patients (hazard ratio 1.03, p=0.95, see FIG. 6 for a Kaplan-Meier plot)

ovarian cancer = test: Ovarian cancer study, carboplatin and paclitaxel after surgery, outcome by VeriStrat group
Protocol: The data shown in FIGS. 7A and 7B reflect VeriStrat testing on a subset of 96 patients from a larger study of about 160 patients. In this study, serum samples were taken from ovarian cancer patients before surgery and retrospectively analyzed with the VeriStrat test. After surgery, the patients were treated with carboplatin and paclitaxel.

[2] = between VeriStrat groups, gemcitabine alone

Nc1ccn([C@@H]2O[C@H](CO)[C@@H](O)C2(F)F)c(=O)n1 [gemcitabine]
median PFS ([1]; VeriStrat Good group): 133 days | median OS ([1]; VeriStrat Good group, gemcitabine alone): 201 days | median PFS ([1]; VeriStrat Poor group): 137 days | median OS ([1]; VeriStrat Poor group, gemcitabine alone): 197 days | hazard ratio (HR), OS by VeriStrat group [1, 2]: 0.82 | hazard ratio (HR), PFS by VeriStrat group [1, 2]: 1.21

CC(=O)O[C@@]12CO[C@@H]1C[C@H](O)[C@@]1(C)C(=O)[C@H](O)C3=C(C)[C@@H](OC(=O)[C@H](O)[C@@H](NC(=O)OC(C)(C)C)c4ccccc4)C[C@@](O)([C@@H](OC(=O)c4ccccc4)[C@H]21)C3(C)C [docetaxel]
hazard ratio, overall survival (NSCLC): 1.03

carboplatin and paclitaxel
median disease free survival time (ovarian cancer; VeriStrat Good patients): 20 months | median overall survival time (ovarian cancer; VeriStrat Good patients): undefined | Hazard Ratio, disease free survival (ovarian cancer; VeriStrat Good vs Poor, FIG. 7A): 0.4906 | hazard ratio, overall survival (ovarian cancer; VeriStrat Good vs Poor, FIG. 7B): 0.3061 | median disease free survival time (ovarian cancer; VeriStrat Poor patients): 11 months | median overall survival time (ovarian cancer; VeriStrat Poor patients): 21 months
